Source: patent publication US6608086B2, “Dihydropyridines and new uses thereof” (Synaptic Pharmaceutical Corporation, priority 1993, dated 2003)
Read-outs that look alike come from different tables or passages of the source.

Key:
[1] = biological target: T1, α1B Human Adrenergic Receptor (Homo sapiens, UniProt P35368); assay: Radioligand binding, [3H]prazosin, cloned human α1B adrenergic receptor
T1 construct: The entire coding region of α1B (1563 bp); expressed in transfected cells
T1 sequence (P35368 1-520): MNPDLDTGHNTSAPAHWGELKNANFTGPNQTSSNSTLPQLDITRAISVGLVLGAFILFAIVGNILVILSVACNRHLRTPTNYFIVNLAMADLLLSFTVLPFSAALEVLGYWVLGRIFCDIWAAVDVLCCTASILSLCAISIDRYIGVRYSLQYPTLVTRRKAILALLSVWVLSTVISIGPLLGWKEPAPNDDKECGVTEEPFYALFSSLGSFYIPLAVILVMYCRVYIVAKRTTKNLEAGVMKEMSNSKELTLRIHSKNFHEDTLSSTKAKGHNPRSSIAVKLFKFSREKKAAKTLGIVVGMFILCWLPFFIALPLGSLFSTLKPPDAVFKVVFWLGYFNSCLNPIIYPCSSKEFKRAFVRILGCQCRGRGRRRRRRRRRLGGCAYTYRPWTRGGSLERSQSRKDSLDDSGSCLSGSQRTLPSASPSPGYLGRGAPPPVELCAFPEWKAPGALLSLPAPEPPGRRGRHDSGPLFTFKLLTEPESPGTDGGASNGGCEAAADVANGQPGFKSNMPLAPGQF
Summary of the method: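 [3H]prazosin (0.5 nM) binding was run for 20 min at 37° C in pH 7.5 Tris/MgCl2/ascorbate buffer on membranes of LM(tk−) cells stably expressing the cloned receptor. Filtration through GF/B ended the reaction; 10 μM phentolamine gave nonspecific binding.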

[2] = biological target: T2, α1C Human Adrenergic Receptor (Homo sapiens, UniProt P35348); assay: Radioligand binding, [3H]prazosin, cloned human α1C adrenergic receptor
T2 construct: The entire coding region of α1C (1401 bp); expressed in transfected cells
T2 sequence (P35348 1-466): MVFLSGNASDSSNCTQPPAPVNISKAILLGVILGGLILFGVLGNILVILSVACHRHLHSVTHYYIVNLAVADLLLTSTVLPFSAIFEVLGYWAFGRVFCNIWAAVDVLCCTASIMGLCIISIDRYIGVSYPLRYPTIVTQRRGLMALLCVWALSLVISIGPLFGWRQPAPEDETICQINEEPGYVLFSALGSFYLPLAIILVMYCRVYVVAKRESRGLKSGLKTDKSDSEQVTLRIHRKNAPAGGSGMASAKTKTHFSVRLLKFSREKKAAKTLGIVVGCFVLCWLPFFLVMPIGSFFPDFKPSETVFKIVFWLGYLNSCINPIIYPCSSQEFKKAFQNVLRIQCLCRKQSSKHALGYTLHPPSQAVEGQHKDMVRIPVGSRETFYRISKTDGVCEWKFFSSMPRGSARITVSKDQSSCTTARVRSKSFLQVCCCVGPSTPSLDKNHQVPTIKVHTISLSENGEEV
Summary of the method: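 Antagonist radioligand [3H]prazosin at 0.5 nM labels human α1C receptors in stably transfected LM(tk−) cell membranes over 20 min at 37° C. Phentolamine (10 μM) gives nonspecific binding.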

[3] = biological target: T3, L-type calcium channel (Rattus norvegicus, UniProt P22002); assay: Competition binding of [3H]nitrendipine to membrane fragments of rat cardiac muscle; details: [3H]nitrendipine
T3 construct: membrane fragments of rat cardiac muscle; from tissue; host or cells: rat cardiac muscle membranes
T3 sequence (P22002 whole entry, other chains not shown, the tested form may be a part): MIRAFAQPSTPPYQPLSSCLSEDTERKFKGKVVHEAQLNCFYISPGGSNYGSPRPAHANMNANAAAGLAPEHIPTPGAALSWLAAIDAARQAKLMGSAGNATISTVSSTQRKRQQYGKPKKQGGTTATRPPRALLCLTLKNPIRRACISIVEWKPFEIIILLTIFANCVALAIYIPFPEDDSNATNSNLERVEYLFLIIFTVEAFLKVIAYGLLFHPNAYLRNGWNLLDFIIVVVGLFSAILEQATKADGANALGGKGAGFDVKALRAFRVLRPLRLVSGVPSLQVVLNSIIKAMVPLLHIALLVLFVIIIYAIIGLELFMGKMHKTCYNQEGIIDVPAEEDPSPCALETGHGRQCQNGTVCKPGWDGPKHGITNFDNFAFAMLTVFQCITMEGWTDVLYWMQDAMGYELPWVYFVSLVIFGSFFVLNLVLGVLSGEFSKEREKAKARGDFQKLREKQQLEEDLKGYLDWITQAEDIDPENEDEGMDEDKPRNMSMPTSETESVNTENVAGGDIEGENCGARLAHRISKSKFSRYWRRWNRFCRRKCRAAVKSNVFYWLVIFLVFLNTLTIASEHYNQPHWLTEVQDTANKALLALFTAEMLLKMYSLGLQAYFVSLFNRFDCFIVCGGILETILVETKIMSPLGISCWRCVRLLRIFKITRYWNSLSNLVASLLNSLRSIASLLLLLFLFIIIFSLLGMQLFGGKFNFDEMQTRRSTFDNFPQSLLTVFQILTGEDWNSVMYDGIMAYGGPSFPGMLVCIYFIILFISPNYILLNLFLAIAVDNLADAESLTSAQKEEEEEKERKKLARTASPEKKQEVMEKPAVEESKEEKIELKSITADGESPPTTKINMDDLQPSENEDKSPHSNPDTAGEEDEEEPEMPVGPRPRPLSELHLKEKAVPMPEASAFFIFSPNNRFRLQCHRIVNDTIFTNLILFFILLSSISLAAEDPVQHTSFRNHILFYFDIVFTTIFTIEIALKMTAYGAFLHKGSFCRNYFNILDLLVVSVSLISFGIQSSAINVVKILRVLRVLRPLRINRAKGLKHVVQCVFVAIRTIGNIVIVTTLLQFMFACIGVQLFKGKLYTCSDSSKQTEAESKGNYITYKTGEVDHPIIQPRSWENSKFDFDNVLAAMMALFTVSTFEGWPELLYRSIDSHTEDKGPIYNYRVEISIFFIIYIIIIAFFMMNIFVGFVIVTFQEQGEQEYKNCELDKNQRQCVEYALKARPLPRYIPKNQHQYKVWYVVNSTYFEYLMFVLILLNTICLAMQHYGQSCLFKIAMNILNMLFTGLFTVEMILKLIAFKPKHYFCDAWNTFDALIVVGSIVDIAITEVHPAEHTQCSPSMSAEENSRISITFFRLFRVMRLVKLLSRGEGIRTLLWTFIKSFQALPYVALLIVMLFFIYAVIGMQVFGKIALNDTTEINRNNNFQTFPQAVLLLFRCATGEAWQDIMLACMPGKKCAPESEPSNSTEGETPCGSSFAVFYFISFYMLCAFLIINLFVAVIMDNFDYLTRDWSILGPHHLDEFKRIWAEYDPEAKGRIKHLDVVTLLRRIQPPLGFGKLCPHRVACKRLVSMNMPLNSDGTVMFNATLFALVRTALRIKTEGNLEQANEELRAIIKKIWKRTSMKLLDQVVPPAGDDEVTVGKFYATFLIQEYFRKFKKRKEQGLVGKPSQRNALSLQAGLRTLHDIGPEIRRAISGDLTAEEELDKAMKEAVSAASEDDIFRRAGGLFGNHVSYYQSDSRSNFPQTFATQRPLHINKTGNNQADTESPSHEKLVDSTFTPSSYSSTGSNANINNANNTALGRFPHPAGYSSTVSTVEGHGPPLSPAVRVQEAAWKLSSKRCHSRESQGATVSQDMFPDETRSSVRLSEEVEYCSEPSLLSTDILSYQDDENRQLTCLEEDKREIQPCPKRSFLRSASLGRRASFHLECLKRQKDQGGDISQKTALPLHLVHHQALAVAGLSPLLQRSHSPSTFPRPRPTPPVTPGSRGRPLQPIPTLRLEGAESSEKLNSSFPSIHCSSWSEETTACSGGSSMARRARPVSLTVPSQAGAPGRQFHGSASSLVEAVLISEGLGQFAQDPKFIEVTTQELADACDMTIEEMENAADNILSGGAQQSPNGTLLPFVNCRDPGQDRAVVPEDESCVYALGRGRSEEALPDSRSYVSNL
T3 sequence (P54290 25-944 partner limits assumed, other chains not shown): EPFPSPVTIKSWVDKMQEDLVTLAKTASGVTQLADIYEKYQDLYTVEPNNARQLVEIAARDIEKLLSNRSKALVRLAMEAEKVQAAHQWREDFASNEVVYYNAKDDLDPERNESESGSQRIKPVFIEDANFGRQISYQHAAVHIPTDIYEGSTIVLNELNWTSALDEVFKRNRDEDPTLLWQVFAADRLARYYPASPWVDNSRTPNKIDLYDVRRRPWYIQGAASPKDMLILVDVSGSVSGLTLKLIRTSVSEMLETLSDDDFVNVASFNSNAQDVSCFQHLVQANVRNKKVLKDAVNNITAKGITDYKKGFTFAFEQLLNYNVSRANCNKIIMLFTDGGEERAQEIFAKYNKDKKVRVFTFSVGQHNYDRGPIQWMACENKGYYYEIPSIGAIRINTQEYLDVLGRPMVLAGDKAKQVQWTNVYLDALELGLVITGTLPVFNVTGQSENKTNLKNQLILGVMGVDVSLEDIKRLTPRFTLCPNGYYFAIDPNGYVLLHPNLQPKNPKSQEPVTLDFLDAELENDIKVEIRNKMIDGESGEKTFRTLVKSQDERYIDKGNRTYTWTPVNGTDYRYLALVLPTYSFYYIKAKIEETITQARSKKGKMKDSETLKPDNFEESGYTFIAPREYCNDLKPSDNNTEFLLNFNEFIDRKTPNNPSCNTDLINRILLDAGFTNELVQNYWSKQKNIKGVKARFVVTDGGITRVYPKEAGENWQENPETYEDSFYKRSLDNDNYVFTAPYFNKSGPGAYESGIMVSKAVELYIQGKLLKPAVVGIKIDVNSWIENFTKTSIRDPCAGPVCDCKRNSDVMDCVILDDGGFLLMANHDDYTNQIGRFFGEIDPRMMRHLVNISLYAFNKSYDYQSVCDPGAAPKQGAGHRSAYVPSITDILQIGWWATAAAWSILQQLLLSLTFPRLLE
T3 sequence (P54290 945-1091 partner limits assumed, other chains not shown): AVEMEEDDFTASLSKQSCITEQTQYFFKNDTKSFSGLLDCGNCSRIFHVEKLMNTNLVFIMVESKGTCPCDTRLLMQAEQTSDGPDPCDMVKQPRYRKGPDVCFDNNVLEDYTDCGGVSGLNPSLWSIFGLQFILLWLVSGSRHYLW
Description: The protocols for these experiments are given below.
Determination of the Activity of al Antagonists at Calcium Channels
Briefly, the tissue was minced and homogenized in 50 mM Tris-HCl (pH 7.4) containing 0.1 mM phenylmethylsulfonyl fluoride. The homogenates were centrifuged at 1000 g for 15 minutes, the resulting supernatant was centrifuged at 45,000 g for 15 minutes. The 45,000 g pellet was suspended in buffer and centrifuged a second time. Aliquots of membrane protein were incubated for 30 minutes at 37° C. in the presence of [3H]nitrendipine (1 nM), and nonspecific binding was determined in the presence of 10 μM nifedipine. The bound radioligand was separated by filtration through GF/B filters using a cell harvester.

[4] = biological target: T4, α1A Human Adrenergic Receptor (Homo sapiens, UniProt P25100); assay: Radioligand binding, [3H]prazosin, cloned human α1A adrenergic receptor; details: [3H]prazosin
T4 construct: The entire coding region of α1A (1719 bp); expressed in transfected cells
T4 sequence (P25100 1-572): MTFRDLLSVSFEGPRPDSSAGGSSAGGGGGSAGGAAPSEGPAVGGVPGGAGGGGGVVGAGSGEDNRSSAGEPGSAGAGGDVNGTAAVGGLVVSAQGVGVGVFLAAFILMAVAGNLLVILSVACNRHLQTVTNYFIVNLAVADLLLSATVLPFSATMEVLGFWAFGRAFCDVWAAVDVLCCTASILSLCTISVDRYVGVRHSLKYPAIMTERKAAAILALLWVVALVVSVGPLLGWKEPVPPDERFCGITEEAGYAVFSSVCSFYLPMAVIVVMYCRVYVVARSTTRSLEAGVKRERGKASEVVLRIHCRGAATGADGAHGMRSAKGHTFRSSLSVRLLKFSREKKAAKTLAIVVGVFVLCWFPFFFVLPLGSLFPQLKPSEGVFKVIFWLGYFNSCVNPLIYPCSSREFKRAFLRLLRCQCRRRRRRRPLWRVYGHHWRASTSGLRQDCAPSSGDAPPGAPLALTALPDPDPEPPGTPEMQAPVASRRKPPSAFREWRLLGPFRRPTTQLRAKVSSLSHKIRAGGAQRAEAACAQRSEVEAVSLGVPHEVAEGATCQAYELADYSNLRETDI
Summary of the method: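 Filter-bound radioactivity measured [3H]prazosin (0.5 nM) binding to membranes of LM(tk−) cells expressing the human α1A receptor after 20 min at 37° C. Phentolamine at 10 μM set nonspecific binding.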

[5] = cloned human receptor in LM(tk-) cell membranes, SEM and n in lines below, read-out: pKi alpha-1 1b (converted)
[6] = cloned human receptor in LM(tk-) cell membranes, SEM and n in lines below, read-out: pKi alpha-1 1c (converted)
[7] = rat cardiac muscle membranes, SEM and n in lines below, read-out: pKi Ca (converted)
[8] = cloned human receptor in LM(tk-) cell membranes, SEM and n in lines below, read-out: pKi alpha-1 1a (converted)
[9] = pKi alpha-1 1b, cloned human α1B receptor, LM(tk−) cell membranes
[10] = pKi alpha-1 1c, cloned human α1C receptor, LM(tk−) cell membranes
[11] = rat cardiac muscle membrane fragments, L-type calcium channel, read-out: pKi Ca (converted)
[12] = pKi alpha-1 1a, cloned human α1A receptor, LM(tk−) cell membranes
[13] = rat cardiac muscle membranes, mean, read-out: PKi Ca (converted)

SMILES	melting point	Ki [1, 9] [nM]	Ki [2, 10] [nM]	Ki [3, 11] [nM]	Ki [4, 12] [nM]	further results
COC(=O)C1=C(C)NC(C)=C(C(=O)NCCCN2CCC(c3ccccc3)CC2)C1c1ccncc1 (centres unmarked) [Example 32, 1,4-Dihydro-3-methoxycarbonyl-2,6-dimethyl-5-(N-(3-(4-phenylpiperidin-1-yl)propyl)carboxamido)-4-(4-pyridyl)pyridine]	79 to 80 °C					Ki [1, 5]: 302 nM; Ki [2, 6]: 13.2 nM; Ki [3, 7]: 1580 nM; Ki [4, 8]: 741 nM
COC(=O)C1=C(C)NC(C)=C(C(=O)OCCCN(C)C)C1c1ccc([N+](=O)[O-])cc1.Cl (centres unmarked) [Example 44, 1,4-Dihydro-5-methoxycarbonyl-2,6-dimethyl-3-{3-[(N,N-dimethyl)amino]propoxy}carbonyl-4-(4-nitrophenyl) pyridine hydrochloride]	120 to 121 °C					Ki [1, 5]: 8320 nM; Ki [2, 6]: 1700 nM; Ki [3, 7]: 16600 nM; Ki [4, 8]: 5890 nM
CCNC(=O)C1=C(CC)NC(CC)=C(C(=O)NCCCN2CCC(c3ccccc3)(c3ccccc3)CC2)C1c1ccc([N+](=O)[O-])cc1 (centres unmarked) [Example 129, 2,6-Diethyl-5-(N-ethyl)carboxamido-1,4-dihydro-4-(4-nitrophenyl)-3-{N-[3-(4,4-diphenylpiperidin-1-yl)propyl]}carboxamidopyridine]	101 to 104 °C	513	3.72	100000	676	
CCNC(=O)C1=C(C)NC(C)=C(C(=O)NCCCN2CCC(c3ccccc3)(c3ccccc3)CC2)C1c1ccc([N+](=O)[O-])cc1 (centres unmarked) [Example 131, 5-(N-Ethyl)carboxamido-1,4-dihydro-2,6-dimethyl-4-(4-nitrophenyl)-3-{N-[3-(4,4-diphenylpiperidin-1-yl)propyl]}carboxamidopyridine]	104 to 108 °C	851	4.57	100000	1480	
CCC1=C(C(=O)NCCCN2CCC(c3ccccc3)(c3ccccc3)CC2)C(c2ccc([N+](=O)[O-])cc2)C(C(=O)NC(C)C)=C(CC)N1 (centres unmarked) [Example 132]	201 °C (dec.)	389	57.5	79400	776	
CNC(=O)C1=C(C)NC(C)=C(C(=O)NCCCN2CCC(C(=O)OC)(c3ccccc3)CC2)C1c1ccc([N+](=O)[O-])cc1 (centres unmarked) [Example 187, 1,4-Dihydro-2,6-dimethyl-3-{N-[3-(4-methoxycarbonyl-4-phenylpiperidin-1-yl)propyl]}carboxamido-5-(N-methyl) carboxamido-4-(4nitrophenyl)pyridine]	122 to 123 °C					Ki ([3]; PKi Ca, rat cardiac muscle membranes, mean): 513000 nM
CCC1=C(C(=O)O)C(c2ccc([N+](=O)[O-])cc2)C(C(=O)NCCCN2CCC(c3ccccc3)CC2)=C(COC)N1 (centres unmarked) [Example 223, 6-Ethyl-1,4-dihydro-2-methyloxymethyl-4-(4-nitro)phenyl-3-(N-(3-(4-phenylpiperidin-1-yl)propyl))carboxamidopyridine-5-carboxylic Acid]						Ki ([1]; cloned human receptor, LM(tk-) cell membranes, mean, read-out: PKi alpha-1 1b (converted)): 174 nM; Ki ([2]; cloned human receptor, LM(tk-) cell membranes, mean, read-out: PKi alpha-1 1c (converted)): 34.7 nM; Ki [3, 13]: 275000 nM; Ki ([4]; cloned human receptor, LM(tk-) cell membranes, mean, read-out: PKi alpha-1 1a (converted)): 891 nM
CCC1=C(C(=O)NC)C(c2ccc([N+](=O)[O-])cc2)C(C(=O)NCCCN2CCC(c3ccccc3)(c3ccccc3)CC2)=C(COCCN=[N+]=[N-])N1 (centres unmarked) [Example 224, 2-((2-Azidoethyl)oxy)methyl-6-ethyl-1,4-dihydro-5-N-methylcarboxamido-4-(4-nitro)phenyl-3-(N-(3-(4,4-diphenylpiperidin-1-yl)propyl))carboxamidopyridine]						Ki ([1]; PKi alpha-1 1b, cloned human receptor, LM(tk-) cell membranes, mean): 263 nM; Ki ([2]; PKi alpha-1 1c, cloned human receptor, LM(tk-) cell membranes, mean): 6.92 nM; Ki [3, 13]: 15100 nM; Ki ([4]; PKi alpha-1 1a, cloned human receptor, LM(tk-) cell membranes, mean): 661 nM
